# In patent publication US20260206761A1, “HETEROARYL-TRIAZOLE COMPOUNDS AS PESTICIDES” (Bayer Aktiengesellschaft, priority 2019, published 2026):
# What was measured:
# Format in all cases: in vivo
# [1] = test system: larvae of the banded cucumber beetle (Diabrotica balteata); test: Diabrotica balteata spray test; details: 168 h, after 7 days, read-out: activity (efficacy: seedlings grown); for pest or weed control at 100 g/ha: application rate 100 g/ha (=32 pg/well); for pest or weed control at 500 g/ha: application rate 500 g/ha (=160 pg/well)
# Outline: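 Wheat seedlings, germinated 1 day on agar (5 seeds/well), sprayed with active compound in acetone/DMF diluted in water containing 1000 ppm emulsifier, then infested with 10-20 D. balteata larvae. Efficacy (%) scored after 7 days: 100% = seedlings grown as untreated uninfested control, 0% = no seedlings grown.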
# [2] = test system: Rhipicephalus microplus larvae (strain Parkhurst, resistant against synthetic pyrethroids); test: Rhipicephalus (Boophilus) microplus in-vitro contact test, larval cattle tick; details: after 48 hours, read-out: activity (efficacy: larvae dead or moribund); for pest or weed control at 100 g/ha: application rate 1 pg/cm^2 (=100 g/ha); for pest or weed control at 500 g/ha: application rate 5 pg/cm^2 (=500 g/ha)
# Outline: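 Acetone solutions coated onto inner walls of glass tubes by rotation (900 ppm giving 5 μg/cm^2); after evaporation, 20-50 larvae added per tube and held at 27° C., 85% relative humidity. Efficacy read after 48 h from negative geotactic behaviour; 100% = all larvae dead or moribund.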
# [3] = test system: adult unfed cat fleas (Ctenocephalides felis); test: Ctenocephalides felis oral test; details: 48 h, read-out: activity (mortality)
# Outline: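 About 20 adult unfed fleas fed through parafilm on cattle blood containing compound (DMSO stock diluted in blood), blood held at 37 °C and fleas at room temperature. Mortality (%) scored after 2 days.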
# [4] = test system: green peach aphid (Myzus persicae); test: Myzus persicae oral test; details: 120 h, application rate 4 ppm, after 5 days
# Outline: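 Oral uptake format: water-diluted acetone concentrate of compound is blended into IPL41 medium carrying 33%+15% sugar and offered under a parafilm membrane. Percentage of dead insects is recorded after 5 days.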
# [5] = test system: Aedes aegypti strain MONHEIM; test: Aedes aegypti test (AEDSAE surface treatment & contact assay); details: 24 hours after contact, read-out: efficacy (mortality); for mortality at 4 mg/m2: surface concentration 4 mg/m^2, exposure 30 minutes; for mortality at 20 mg/m2: surface concentration 20 mg/m^2, exposure 30 minutes
# Outline: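 Compound in acetone (2 mg/ml) with 2000 ppm RME pipetted onto glazed tile and dried; adult Aedes aegypti MONHEIM exposed 30 min. Percent mortality scored 24 h after contact.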
# [6] = test system: fall armyworm larvae (Spodoptera frugiperda); test: Spodoptera frugiperda spray test; details: 168 h, read-out: activity (mortality)
# Outline: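 Compound in acetone/DMF, diluted in water with 1000 ppm alkylarylpolyglycol ether emulsifier, sprayed on maize leaf sections. Dried leaves infested with fall armyworm larvae; % mortality after 7 days (100% = all killed, 0% = none).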
# [7] = test system: green peach aphid (Myzus persicae); test: Myzus persicae spray test; details: 120 h, after 5 days; for mortality at 100 g/ha: application rate 100 g/ha; for mortality at 500 g/ha: application rate 500 g/ha
# Outline: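 Chinese cabbage leaf disks carrying all instars of M. persicae sprayed with compound in acetone/DMF, diluted in water with 1000 ppm alkylarylpolyglycol ether emulsifier. Percent mortality scored after 5 days (100% = all aphids killed).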
# [8] = test system: Musca domestica strain WHO-N; test: Musca domestica test (MUSCDO surface treatment & contact assay); details: 24 hours after contact, read-out: efficacy (mortality); for mortality at 20 mg/m2: surface concentration 20 mg/m^2, exposure 30 minutes; for mortality at 4 mg/m2: surface concentration 4 mg/m^2, exposure 30 minutes
# Outline: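 Compound dissolved at 2 mg/ml in acetone with 2000 ppm rapeseed oil methyl ester and pipetted onto a glazed tile. After the acetone evaporated, adult WHO-N flies were exposed to the dried surface for 30 min, with % mortality scored 24 h after contact.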
SMILES,pest or weed control at 100 g/ha [1] [%],pest or weed control at 500 g/ha [1] [%],pest or weed control at 100 g/ha [2] [%],mortality at 100 ppm [3] [%],mortality at 4 ppm [4] [%],mortality at 4 mg/m2 [5] [%],mortality at 20 mg/m2 [5] [%],mortality at 100 g/ha [6] [%],mortality at 500 g/ha [6] [%],pest or weed control at 500 g/ha [2] [%],mortality at 100 g/ha [7] [%],mortality at 500 g/ha [7] [%],mortality at 20 mg/m2 [8] [%],mortality at 4 mg/m2 [8] [%]
C[C@H](NC(=O)c1cc(Cl)cc(S(C)(=O)=O)c1)c1nc(C2CC2)nn1-c1ccc(C#N)cn1 [I-4],100,100,90,100,100,80 to 100,80 to 100,100,100,,,,,
CSc1cc(C#N)cc(C(=O)N[C@@H](C)c2ncnn2-c2ccc(C#N)cn2)c1 [II-3],100,100,90,100,100,80 to 100,80 to 100,,100,90,100,100,,
Cc1nc([C@H](C)NC(=O)c2cc(C(F)(F)F)n(C)n2)n(-c2ccc(C#N)cn2)n1 [II-7],100,100,,100,,80 to 100,80 to 100,100,100,100,,,80 to 100,
Cc1nc([C@H](C)NC(=O)c2cc(Cl)nn2C)n(-c2ccc(C#N)cn2)n1 [II-11],100,100,100,100,,80 to 100,80 to 100,,100,100,,,,80 to 100
C[C@H](NC(=O)c1cc(C#N)cc([S+](C)[O-])c1)c1ncnn1-c1ccc(C#N)cn1 (some centres unmarked) [II-12],100,100,80,,100,80 to 100,80 to 100,,100,100,90,90,,
C[C@H](NC(=O)c1cc(C(F)(F)F)cc(S(C)(=O)=O)c1)c1ncnn1-c1ncccn1 [II-13],100,100,,,100,80 to 100,80 to 100,,100,80,90,100,,80 to 100
C[C@H](NC(=O)c1cc(C(F)(F)F)cc(S(C)(=O)=O)c1)c1ncnn1-c1ccc(Cl)cn1 [II-16],100,100,100,100,100,80 to 100,80 to 100,100,100,100,,,,
C[C@H](NC(=O)c1cc(Cl)cc(S(=O)(=O)C(F)F)c1)c1ncnn1-c1ccc(C#N)cn1 [II-17],100,100,100,100,100,80 to 100,80 to 100,83,100,100,,,,
"C[C@H](NC(=O)c1cc(Cl)cc([S+]([O-])C(F)F)c1)c1ncnn1-c1ccc(C#N)cn1 (stereo partly drawn) [II-18, 3-chloro-N-{(1S)-1-[1-(5-cyanopyridin-2-yl)-1H-1,2,4-triazol-5-yl]ethyl}-5-[(difluoro-methyl)sulfinyl]benzamide]",100,100,100,100,100,80 to 100,80 to 100,100,100,100,,,80 to 100,
C[C@H](NC(=O)c1cc(OC(F)(F)F)cc(C2CC2)c1)c1ncnn1-c1ccc(Cl)cn1 [II-23],100,100,100,,,80 to 100,80 to 100,100,100,100,100,100,80 to 100,80 to 100
Cc1nc([C@H](C)NC(=O)c2cc(C(F)(F)F)n(C)n2)n(-c2ncccn2)n1 [II-25],,100,100,,,80 to 100,80 to 100,,,100,,90,80 to 100,80 to 100
C[C@H](NC(=O)c1cc(C2CC2)cc(C(F)(F)F)c1)c1ncnn1-c1ccc(C#N)cn1 [II-26],100,100,100,,100,80 to 100,80 to 100,100,100,100,90,100,80 to 100,80 to 100
C[C@H](NC(=O)c1cc(C2CC2)cc(C(F)(F)F)c1)c1ncnn1-c1ccc(Cl)cn1 [II-27],100,100,100,100,,80 to 100,80 to 100,100,100,100,,,80 to 100,80 to 100
C[C@H](NC(=O)c1cc(C#N)cc(S(C)(=O)=O)c1)c1ncnn1-c1ccc(Cl)cn1 [II-29],,100,100,100,100,80 to 100,80 to 100,83,100,100,90,100,,
Cc1nc([C@H](C)NC(=O)c2cc(OC(F)(F)F)cc(C3CC3)c2)n(-c2ccc(C#N)cn2)n1 [II-39],100,,100,100,100,80 to 100,80 to 100,100,,100,,,80 to 100,80 to 100
C[C@H](NC(=O)c1cc(Cl)cc(S(C)(=O)=O)c1)c1ncnn1-c1ncc(OC(F)F)cn1 [II-42],80,,100,100,100,80 to 100,80 to 100,,,100,90,,,
C[C@H](NC(=O)c1cc(Cl)cc(S(=O)(=O)C(F)(F)F)c1)c1ncnn1-c1ncc(OC(F)F)cn1 [II-43],100,,100,100,100,80 to 100,80 to 100,100,,100,,,,
C[C@H](NC(=O)c1cc(C#N)cc(C2CC2)c1)c1ncnn1-c1ncccn1 [II-54],100,,90,100,100,80 to 100,80 to 100,83,,80,100,,,
